Test results as given in patent US12649712B2, “Indene compounds, pharmaceutical compositions thereof, and their therapeutic applications” (NucMito Pharmaceuticals Co. Ltd., priority 2020, dated 2026).

Each molecule was assayed on alpha-smooth muscle actin (α-SMA) (assay: Inhibition of TGF-β induced expression of alpha-smooth muscle actin (α-SMA) in CFSC cells, western blot). Conditions: compound at 10 μM, TGF-β (10 ng/mL), 24 hours, decrease in band intensity vs TGF-β only.
Format: cell-based
Description: The ability of a compound to inhibit the TGF-β induced expression of alpha-smooth muscle actin (α-SMA) was evaluated in CCL4-treated fat storing (CFSC) cells. α-SMA is considered as a reliable marker of hepatic stellate cell activation and a key biomarker for liver fibrosis. See, e.g., Meng et al., Nat. Rev. Nephrol. 2016, 12, 325-38; Fabregat et al., FEBS J. 2016, 283, 2219-32.
CFSC cells maintained in a DMEM medium supplemented with 10% fetal bovine serum were seeded to 12-well culture dishes and grown to a confluence of 60-70% the next day. Culture was changed to a serum-free DMEM medium and treated with a compound at 10 μM in the presence of TGF-β (10 ng/mL). The cells were incubated for another 24 hours. All culture was maintained at 37° C. in 5% carbon dioxide.
A NP-40 lysate solution (50 mM Tris (pH 7.4), 150 mM NaCl, 1% NP-40) with EDTA free cocktail added was used to lyse the cells on ice for 30 min. The lysate was collected and centrifuged at 4° C. for 10 min at 12,000 rpm. The pellet was discarded and the supernatant was transferred to a new tube. Cell lysates were loaded with 5×loading buffer and boiled for 10 min, resolved by 10% SDS-polyacrylamide gel electrophoresis (SDS-PAGE), and transferred to PVDF membrane. The membrane was blocked with 5% skim milk in Tris-buffered saline and TWEEN® 20 (TBST; 10 mM Tris-HCl (pH 8.0), 150 mM NaCl, 0.1% TWEEN® 20) for 1 h at room temperature and then incubated with α-SMA and […] antibodies overnight at 4° C. After washing twice with TBST, the membrane was probed with a horseradish […] anti-immunoglobulin (1:5000 dilution) for 1 h at room temperature. After two subsequent rinses in TBST, immunoreactive products were reacted with ECL and visualized by a UVP CHEMSTUDIO™ imaging system. The western blotting bands are quantitated using an ImageJ software. The percentage of inhibition was obtained by calculating the percentage decrease in the band intensity compared to the one treated with TGF-β only.
The results are summarized in Table 1, wherein A represents a value no less of 90% inhibition, B represents a value less than 90% but no less than 80% inhibition, C represents a value less than 80% but no less than 70% inhibition, D represents a value less than 70% but no less than 50% inhibition, and E represents a value less than 50% with a compound at 10 μM.

First: CC1=C(CC(=O)O)c2cc(F)ccc2/C1=C\c1ccc(C2CC2)cc1 [Compound B37, 2-[(1Z)-1-[(4-cyclopropylphenyl)methylidene]-5-fluoro-2-methyl-1H-inden-3-yl]acetic acid]
Second: C=C(C)c1ccc(/C=C2/C(C)=C(CC(=O)O)c3cc(F)ccc32)cc1 [Compound B39, 2-[(1Z)-5-fluoro-2-methyl-1-{[4-(prop-1-en-2-yl)phenyl]methylidene}-1H-inden-3-yl]acetic acid]
The inhibition at 10 µM of the first is higher: 80 to 90% for the first, < 50% for the second.

Compared with `CC1=C(CC(=O)O)c2cc(F)ccc2/C1=C\c1ccc(C(C(F)(F)F)C(F)(F)F)cc1` [Compound B42, 2-[(1Z)-5-fluoro-1-{[4-(1,1,1,3,3,3-hexafluoropropan-2-yl)phenyl]methylidene}-2-methyl-1H-inden-3-yl]acetic acid], `CC1=C(CC(=O)O)c2cc(F)ccc2/C1=C\c1ccc(Oc2ccc(C(F)(F)F)cc2)cc1` [Compound D7, 2-[(1Z)-5-Fluoro-2-methyl-1-({4-[4-(trifluoromethyl)phenoxy]phenyl}-methylidene)-1H-inden-3-yl]acetic acid] is higher in inhibition at 10 µM: 80 to 90% for the first, > 90% for the second.

`CC1=C(CC(=O)N(C)O)c2cc(F)ccc2/C1=C\c1ccc(Oc2ccccc2)cc1` [Compound C1, 2-[(1Z)-5-Fluoro-2-methyl-1-[(4-phenoxyphenyl)methylidene]-1H-inden-3-yl]-N-hydroxy-N-methylacetamide] and `CC1=C(CC(=O)N(C)O)c2cc(F)ccc2/C1=C\c1cccc(Oc2ccccc2)c1` [Compound C3, (Z)-2-(5-Fluoro-2-methyl-1-(3-phenoxybenzylidene)-1H-inden-3-yl)-N-hydroxy-N-methylacetamide] fall in the same range of inhibition at 10 µM: 80 to 90% for the first, 80 to 90% for the second.

`CC1=C(CC(=O)N(C)O)c2cc(F)ccc2/C1=C\c1ccc(Oc2ccc(F)cc2)cc1` [Compound C2, 2-[(1Z)-5-Fluoro-1-{[4-(4-fluorophenoxy)phenyl]methylidene}-2-methyl-1H-inden-3-yl]-N-hydroxy-N-methylacetamide] and `COc1ccc2c(c1)C(CC(=O)O)=C(C)/C2=C/c1ccc(Oc2ccc(F)cc2)cc1` [Compound D10, 2-[(1Z)-5-Methoxy-2-methyl-1-({4-[4-fluorophenoxy]phenyl}methylidene)-1H-inden-3-yl]acetic acid] cannot be ordered by inhibition at 10 µM: > 90% for the first, > 90% for the second.

`CC1=C(CC(=O)NO)c2cc(F)ccc2/C1=C\c1ccc(Oc2ccc(C(C)C)cc2)cc1` [Compound D1, 2-[(1Z)-5-Fluoro-2-methyl-1-({4-[4-(propan-2-yl)phenoxy]phenyl}methylidene)-1H-inden-3-yl]-N-hydroxyacetamide] and `CC1=C(CC(=O)O)c2cc(F)ccc2/C1=C\c1ccc(Oc2ccc(C(C)(C)C)cc2)cc1` [Compound D2, 2-[(1Z)-5-Fluoro-2-methyl-1-({4-[4-(tert-butyl)phenoxy]phenyl}methylidene)-1H-inden-3-yl]acetic acid] cannot be ordered by inhibition at 10 µM: > 90% for the first, > 90% for the second.

Compared with `CC1=C(CC(=O)O)c2cc(F)ccc2/C1=C\c1ccc(Oc2cccc(C(C)(C)C)c2)cc1` [Compound D3, 2-[(1Z)-5-Fluoro-2-methyl-1-({4-[3-(tert-butyl)phenoxy]phenyl}methylidene)-1H-inden-3-yl]acetic acid], `CC1=C(CC(=O)O)c2cc(F)ccc2/C1=C\c1ccc(Oc2cccc([N+](=O)[O-])c2)cc1` [Compound D6, 2-[(1Z)-5-Fluoro-2-methyl-1-({4-[3-nitrophenoxy]phenyl}methylidene)-1H-inden-3-yl]acetic acid] is lower in inhibition at 10 µM: > 90% for the first, < 50% for the second.

Going from `CC1=C(CC(=O)O)c2cc(F)ccc2/C1=C\c1ccc(Oc2ccc(C)c(F)c2)cc1` [Compound D4, 2-[(1Z)-5-Fluoro-2-methyl-1-({4-[3-fluoro-4-methylphenoxy]phenyl}-methylidene)-1H-inden-3-yl]acetic acid] to `CC1=C(CC(=O)O)c2cc(F)ccc2/C1=C\c1ccc(Oc2ccc(F)c(F)c2)cc1` [Compound D5, 2-[(1Z)-5-Fluoro-2-methyl-1-({4-[3,4-difluorophenoxy]phenyl}methylidene)-1H-inden-3-yl]acetic acid], the inhibition at 10 µM rises from < 50% to > 90%.

First: CC(C)CC1=C(CC(=O)O)c2cc(F)ccc2/C1=C\c1ccc(Oc2ccc(F)cc2)cc1 [Compound D8, 2-[(1Z)-5-Fluoro-1-{[4-(4-fluorophenoxy)phenyl]methylidene}-2-(2-methylpropyl)-1H-inden-3-yl]acetic acid]
Second: O=C(O)CC1=C(Cc2ccccc2)/C(=C/c2ccc(Oc3ccc(F)cc3)cc2)c2ccc(F)cc21 [Compound D9, 2-[(1Z)-5-Fluoro-2-benzyl-1-({4-[4-fluorophenoxy]phenyl}methylidene)-1H-inden-3-yl]acetic acid]
The inhibition at 10 µM of the first is higher: > 90% for the first, < 50% for the second.

`COc1ccc2c(c1)C(CC(=O)O)=C(C)/C2=C/c1ccc(Oc2ccccc2)cc1` [Compound D11, 2-[(1Z)-5-Methoxy-2-methyl-1-[(4-phenoxyphenyl)methylidene]-1H-inden-3-yl]acetic acid] and `COc1ccc(Oc2cccc(/C=C3/C(C)=C(CC(=O)O)c4cc(F)ccc43)c2)cc1` [Compound D22, 2-[(1Z)-5-Fluoro-2-methyl-1-({3-[4-methoxyphenoxy]phenyl}methylidene)-1H-inden-3-yl]acetic acid] cannot be ordered by inhibition at 10 µM: > 90% for the first, > 90% for the second.

Compared with `CC1=C(CC(=O)O)c2cc(F)ccc2/C1=C\c1ccc(Oc2ccc(F)cc2)cc1C(F)(F)F` [Compound D12, 2-[(1Z)-1-{[2-Trifluoromethyl-4-(4-fluorophenoxy)phenyl]methylidene}-5-fluoro-2-methyl-1H-inden-3-yl]acetic acid], `CC1=C(CC(=O)O)c2cc(F)ccc2/C1=C\c1ccc(Oc2ccc(F)cc2)cc1C` [Compound D14, 2-[(1Z)-1-{[2-Methyl-4-(4-fluorophenoxy)phenyl]methylidene}-5-fluoro-2-methyl-1H-inden-3-yl]acetic acid] is higher in inhibition at 10 µM: < 50% for the first, > 90% for the second.

Compared with `CC1=C(CC(=O)O)c2cc(F)ccc2/C1=C\c1ccc(Oc2ccc(F)cc2)c(C)c1` [Compound D13, 2-[(1Z)-1-{[3-Methyl-4-(4-fluorophenoxy)phenyl]methylidene}-5-fluoro-2-methyl-1H-inden-3-yl]acetic acid], `CC1=C(CC(=O)O)c2cc(F)ccc2/C1=C\c1ccc(F)c(Oc2ccccc2)c1` [Compound D23, 2-[(1Z)-5-Fluoro-1-(4-fluoro-3-(phenoxy)benzylidene)-2-methyl-1H-inden-3-yl]-acetic acid] is higher in inhibition at 10 µM: < 50% for the first, > 90% for the second.

First: CC1=C(CC(=O)O)c2cc(F)cc(F)c2/C1=C\c1ccc(Oc2ccc(F)cc2)cc1 [Compound D15, 2-[(1Z)-5,7-Difluoro-2-methyl-1-({4-[4-fluorophenoxy]phenyl}methylidene)-1H-inden-3-yl]acetic acid]
Second: CC1=C(CC(=O)O)c2c(F)cc(F)cc2/C1=C\c1ccc(Oc2ccc(F)cc2)cc1 [Compound D16, 2-[(1Z)-4,6-Difluoro-2-methyl-1-({4-[4-fluorophenoxy]phenyl}methylidene)-1H-inden-3-yl]acetic acid]
The inhibition at 10 µM of the first is higher: > 90% for the first, < 50% for the second.

`CC1=C(CC(=O)O)c2cc(F)ccc2/C1=C\c1cccc(Oc2ccccc2)c1` [Compound D18, (Z)-2-(5-Fluoro-2-methyl-1-(3-phenoxybenzylidene)-1H-inden-3-yl)acetic acid] and `CC1=C(CC(=O)O)c2cc(F)ccc2/C1=C\c1cccc(Oc2ccc(Cl)cc2)c1` [Compound D25, 2-[(1Z)-5-Fluoro-2-methyl-1-({3-[4-chlorophenoxy]phenyl}methylidene)-1H-inden-3-yl]acetic acid] cannot be ordered by inhibition at 10 µM: > 90% for the first, > 90% for the second.

First: CC1=C(CC(=O)O)c2cc(F)ccc2/C1=C\c1ccccc1Oc1ccccc1 [Compound D19, 2-[(1Z)-5-Fluoro-1-(2-(phenoxy)benzylidene)-2-methyl-1H-inden-3-yl]-acetic acid]
Second: CC1=C(CC(=O)O)c2cc(F)cc(F)c2/C1=C\c1cccc(Oc2ccccc2)c1 [Compound D20, 2-[(1Z)-5,7-Difluoro-1-(3-(phenoxy)benzylidene)-2-methyl-1H-inden-3-yl]-acetic acid]
The inhibition at 10 µM of the first is lower: < 50% for the first, > 90% for the second.

`CC1=C(CC(=O)O)c2c(F)cc(F)cc2/C1=C\c1cccc(Oc2ccccc2)c1` [Compound D21, 2-[(1Z)-4,6-Difluoro-1-(3-(phenoxy)benzylidene)-2-methyl-1H-inden-3-yl]-acetic acid] and `CC1=C(CC(=O)O)c2cc(F)ccc2/C1=C\c1cccc(Oc2ccc(C(F)(F)F)cc2)c1` [Compound D26, 2-[(1Z)-5-Fluoro-2-methyl-1-({3-[4-trifluoromethylphenoxy]phenyl}-methylidene)-1H-inden-3-yl]acetic acid] cannot be ordered by inhibition at 10 µM: > 90% for the first, > 90% for the second.
